This data set relates to maize. Kind of data set: Pre-emergence test (Example B2), greenhouse pots, phytotoxicity on maize. Format: in vivo. The protocol: The test plants are sown in pots under greenhouse conditions. A standard soil is used as cultivation substrate. At a pre-emergence stage, the herbicides, both on their own and in admixture with safener, are applied to the soil surface or to cultivated plants seed-dressed with safener. The rates of application depend on the optimum doses ascertained under field conditions or greenhouse conditions. The tests are evaluated after from 2 to 4 weeks (100% action=complete destruction, 0% action=no phytotoxic action). The mixtures used in this test show good results.

Results on one molecule are retold here after patent US20040167033A1, “Herbicidal composition” (priority 2001, published 2004).

Take `CCc1cccc(C)c1N(C(=O)CCl)[C@@H](C)COC` [S-metolachlor]: the “Phytotoxicity on maize (%) 15 days after application” value (shortened to “Phytotoxicity on maize (%) 15 days”) (Table B2.1, S-metolachlor 1000 g/ha (EC 960), safener of formula II row prints 1000 g/ha) turned out to be 7%; the “Phytotoxicity on maize (%) 15 days” value (Table B2.1, S-metolachlor 2000 g/ha (EC 960), safener of formula II row prints 2000 g/ha) came to 20%; the “Phytotoxicity on maize (%) 15 days” value (Table B2.1, S-metolachlor 4000 g/ha (EC 960), safener of formula II row prints 4000 g/ha) is given as 40%; the “Phytotoxicity on maize (%) 15 days” value (Table B2.1, S-metolachlor 6000 g/ha (EC 960), safener of formula II row prints 6000 g/ha, 100%=complete destruction) is 53%.
